“Also recorded” adds a separate entry of the source. Like-named read-outs stand apart in the source and are kept apart here.
Tests used:
[1] = test system: rat spared nerve injury (SNI) model; assay type: in vivo
[2] = test system: rat spared nerve injury (SNI) model; assay type: in vivo; remark: listed apart in the source
naïve male SD rats = conditions: tat-CSM-1S by spinal delivery, over a 24 hour period
[3] = test system: rat dorsal root ganglion (DRG) neurons; assay: Ouabain-induced increase in cytosolic Na+ (SBFI imaging) in DRG neurons; assay type: cell-based
[4] = SNI rats, dose not given, p<0.05 vs BL-Post SNI

NCC1(CC(=O)O)CCCCC1 [gabapentin]
antihyperalgesic effect in SNI (reference drugs) [1, 4]: Antihyperalgesic effects
antiallodynic effect in SNI (reference drugs) [2, 4]: Antiallodynic effects
motor impairment / sedation on the rotarod (naïve male SD rats): decrease in the ability of naïve rats to remain on the rotating rod
motor impairment / sedation on the rotarod (naïve male SD rats; listed as Gabapentin): significant sedation/motor impairment

Protox-II: a spider toxin that preferentially blocks NaV1.7 (YCQKWMWTCDSERKCCEGMVCRLWCKKKLW)
ouabain-induced increase in [Na+]c ([3]; 10 μM Protox-II, 1 mM ouabain): inhibited; also recorded: attenuate

NC1=N[C@H](O)[C@H]2[C@H]3O[C@]4(O)O[C@@H]([C@@H](O)[C@@]2(N1)[C@@H]4O)[C@]3(O)CO [tetrodotoxin]
ouabain-induced increase in [Na+]c [3]: inhibited; also recorded: attenuate

CN1CC[C@]23c4c5ccc(O)c4O[C@H]2[C@@H](O)C=C[C@H]3[C@H]1C5 [morphine]
antihyperalgesic effect in SNI (reference drugs) ([1]; rat, in vivo): Antihyperalgesic effects
antiallodynic effect in SNI (reference drugs) ([2]; rat, in vivo): Antiallodynic effects

Source: patent US10287334B2, “Non-narcotic CRMP2 peptides targeting sodium channels for chronic pain” (priority 2014, dated 2019)
